Test results published in patent US8952024B2, “Herbicidal pyrimidone derivatives” (E I du Pont de Nemours and Company, priority 2009, dated 2015).

How the values were obtained:
Type in all cases: in vivo
[1] = test system: galium (catchweed bedstraw, Galium aparine); assay: Test B pre-/postemergence plant response; conditions: Preemergence
How it was run: (§1)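 Each species received compound formulated in non-phytotoxic solvent with surfactant, either at planting into a loam and sand blend or as a foliar spray once plants reached 2 to 18 cm in peat-based medium. Plants stayed in the greenhouse 13 to 15 days before visual evaluation against controls, scored 0 (no effect) to 100 (complete control).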

[2] = test system: nightshade (eastern black nightshade, Solanum ptycanthum); assay: Test B pre-/postemergence plant response; conditions: Preemergence
How it was run: as §1

[3] = test system: sunflower (common oilseed sunflower, Helianthus annuus); assay: Test B pre-/postemergence plant response; conditions: Preemergence
How it was run: as §1

[4] = test system: chickweed (Stellaria media); assay: Test B postemergence plant response; conditions: Postemergence
How it was run: (§2)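 Plants grown in peat/vermiculite medium were sprayed postemergence at 2–18 cm height (1- to 4-leaf stage). After 13–15 days in the greenhouse, response was rated visually against untreated controls on a 0–100 scale (0 no effect, 100 complete control).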

[5] = test system: windgrass (Apera spica-venti); assay: Test B postemergence plant response; conditions: Postemergence
How it was run: as §2

[6] = test system: winter barley (Hordeum vulgare); assay: Test B postemergence plant response; conditions: Postemergence
How it was run: as §2

[7] = test system: canarygrass (Phalaris minor); assay: Test B postemergence plant response; conditions: Postemergence
How it was run: as §2

[8] = test system: wheat (Triticum aestivum); assay: Test A pre-/postemergence plant response
How it was run: (§3)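 Plants grown from seed in a loam soil and sand mix received test compounds both as a preemergence soil spray and, at the same time, as a postemergence spray at the one- to two-leaf stage. Injury was judged visually against untreated controls roughly ten days later, 0 meaning no effect and 100 complete control.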

[9] = test system: barnyardgrass (Echinochloa crus-galli); assay: Test A pre-/postemergence plant response
How it was run: as §3

corn (Zea mays) = assay: Test A pre-/postemergence plant response
How it was run: as §3

[10] = test system: giant foxtail (Setaria faberii); assay: Test A pre-/postemergence plant response
How it was run: as §3

[11] = test system: large crabgrass (Digitaria sanguinalis); assay: Test A pre-/postemergence plant response
How it was run: as §3

[12] = test system: velvetleaf (Abutilon theophrasti); assay: Test A pre-/postemergence plant response
How it was run: as §3

[13] = 31 g ai/ha, scale 0 to 100 (0 no effect, 100 complete control)
[14] = 62 g ai/ha, scale 0 to 100, 0 no effect, 100 complete control
[15] = 125 g ai/ha, scale 0 to 100, 0 no effect, 100 complete control
[16] = 31 g ai/ha, 0 to 100 scale (0 no effect, 100 complete control)
[17] = 125 g ai/ha, scale 0 (no effect) to 100 (complete control), 13 to 15 days
[18] = 250 g ai/ha, scale 0 to 100 (0 no effect, 100 complete control), 13 to 15 days
[19] = 62 g ai/ha, scale 0 to 100 (0 no effect, 100 complete control)
[20] = Postemergence, 125 g ai/ha, visual injury, 0 to 100 scale (0 no effect, 100 complete control), approx. ten days
[21] = Postemergence, 500 g ai/ha, visual injury, 0 to 100 scale (0 no effect, 100 complete control), approx. ten days
[22] = Preemergence, 125 g ai/ha, 0 to 100 scale where 0 is no effect and 100 is complete control, approximately ten days
[23] = Preemergence, 500 g ai/ha, 0 to 100 scale, 0 = no effect, 100 = complete control
[24] = Postemergence, 125 g ai/ha, 0 to 100 scale where 0 is no effect and 100 is complete control

## COCCCn1c(-c2cc(F)cc(F)c2)ncc(C(=O)C2=C(O)C3CCC(C3)C2=O)c1=O (stereo not shown) [Compound 244]
[1]; [13]
  Plant response rating, Galium: 55
[1]; [14]
  Plant response rating, Galium: 65
[1]; [15]
  Plant response rating, Galium: 98
[1]; 250 g ai/ha, 0 to 100 scale
  Galium plant response rating: 98
[2]; [13]
  Plant response rating, Nightshade: 98
[2]; [14]
  Plant response rating, Nightshade: 100
[2]; [15]
  Plant response rating, Nightshade: 100
[2]; 250 g ai/ha, 0 to 100 scale
  Nightshade plant response rating: 100
[3]; [13]
  Plant response rating, Sunflower: 80
[3]; [14]
  Plant response rating, Sunflower: 80
[3]; [15]
  Plant response rating, Sunflower: 85
[3]; 250 g ai/ha, 0 to 100 scale
  Sunflower plant response rating: 100
[4]; [16]
  Plant response rating, Chickweed: 80
[4]; [17]
  Plant response rating, Chickweed: 98
[4]; [18]
  Plant response rating, Chickweed: 100
[4]; [19]
  Plant response rating, Chickweed: 95
[5]; [16]
  Plant response rating, Windgrass: 50
[5]; [17]
  Plant response rating, Windgrass: 80
[5]; [18]
  Plant response rating, Windgrass: 95
[5]; [19]
  Plant response rating, Windgrass: 70
[6]; [16]
  Plant response rating, Barley: 50
[6]; [17]
  Plant response rating, Barley: 90
[6]; [18]
  Plant response rating, Barley: 98
[6]; [19]
  Plant response rating, Barley: 65
[7]; [16]
  Plant response rating, Canarygrass: 80
[7]; [17]
  Plant response rating, Canarygrass: 98
[7]; [18]
  Plant response rating, Canarygrass: 100
[7]; [19]
  Plant response rating, Canarygrass: 95
[8]; [20]
  Plant response rating, Wheat: 40
[8]; [21]
  Wheat plant response rating: 70
[8]; [22]
  Plant response rating, Wheat: 0
[8]; [23]
  Plant response rating, Wheat: 40
[9]; [24]
  Plant response rating, Barnyardgrass: 90
[9]; [21]
  Barnyardgrass plant response rating: 100
[9]; [22]
  Plant response rating, Barnyardgrass: 30
[9]; [23]
  Plant response rating, Barnyardgrass: 100
Corn (Zea mays); [24]
  Plant response rating, Corn: 40
Corn (Zea mays); [21]
  Corn plant response rating: 80
Corn (Zea mays); [22]
  Plant response rating, Corn: 20
Corn (Zea mays); [23]
  Plant response rating, Corn: 40
[10]; [20]
  Plant response rating, Foxtail, Giant: 90
[10]; [21]
  Foxtail, Giant plant response rating: 90
[10]; [22]
  Plant response rating, Foxtail, Giant: 70
[10]; [23]
  Plant response rating, Foxtail, Giant: 100
[11]; [24]
  Plant response rating, Crabgrass, Large: 90
[11]; [21]
  Crabgrass, Large plant response rating: 90
[11]; [22]
  Plant response rating, Crabgrass, Large: 90
[11]; [23]
  Plant response rating, Crabgrass, Large: 100
[12]; [20]
  Plant response rating, Velvetleaf: 100
[12]; [21]
  Velvetleaf plant response rating: 100
[12]; [22]
  Plant response rating, Velvetleaf: 50
[12]; [23]
  Plant response rating, Velvetleaf: 100
